Measured values from patent US20130136811A1, “Compositions and Methods for Pain Reduction” (priority 2010, published 2013).
Several values for one entry are separate records, joined by “and”; a condition that tells them apart may be missing. Equal entries are not always repeated.

How the values were obtained:
[1] = system: primary cultures of mouse cortical neurons; assay: NMDAR-mediated excitotoxicity, LDH cell death assay; format: cell-based; conditions: for neuroprotective effect (% protection): NMDA 200 μM 5 minutes, glycine 10 μM, LDH 24 hours after
Experimental: Studies were carried out to determine whether application of Wogonin can prevent N-methyl-D-Aspartate receptor (NMDAR)-mediated excitotoxicity in primary neuronal cultures from mouse cortex in vitro. In particular, detailed dose/response curves of Wogonin applied together with and for the duration of application of NMDA were generated. NMDAR-induced cytotoxicity can lead to fulminant cell death, necrosis, or a delayed form of cell death (apoptosis). While necrosis leads to immediate cell lysis, apoptotic cell death develops over time and is distinguished by a number of criteria such as characteristic morphological changes and DNA fragmentation. The LDH assay was used for the determination of cell death. This assay assesses primary necrosis as well as secondary, necrotic cell death subsequent to apoptosis.
For these experiments, cytotoxicity assays were conducted in primary cultures of mouse cortical neurons after 10 days in vitro using an art-recognized assay systema (Sun X, Chan L N, Gong X, Sucher N J. N-methyl-D-Aspartate receptor antagonist activity in traditional Chinese stroke medicines. NeuroSignals, 2003; 12:31-38.) Cultured neurons were exposed to NMDA (200 μM; 5 minutes) and co-agonist glycine (10 μM) in the nominal absence of magnesium and the presence of increasing concentrations of Wogonin. Measurements were performed for each dose of Wogonin in triplicate in at least three independent experiments. Wogonin was added to the culture in three different ways: 1) before, concomitant with and after NMDA, 2) concomitant with and after NMDA and 3) after NMDA. Twenty-four hours after exposure to NMDA cell death is determined by colorimetric lactate dehydrogenase (LDH) assay.

[2] = system: mouse formalin pain model; assay: mouse formalin pain model (paw licking); format: in vivo; conditions: for Duration of Licking: 200 mg/kg, individual animals 01-08; for Area Under the Curve, Drug Treated: 200 mg/kg i.p.
Experimental: The formalin test for antinociceptive activity is described in numerous publications, e.g., Hunskaar, S. O. B. Fasmer, and K. Hole, J. Neurosci. Methods 14: 69-76 (1985). The formalin test is a chemically-induced tonic pain model in which biphasic changes of nociceptive behavior are assessed and spinal/supraspinal plasticity of nociception is considered as a molecular basis for neuropathic pain particularly during the second (late) phase of the test, during which most clinically used drugs against neuropathic pain are active. The formalin test is accepted as an art recognized model of persistent clinical pain.
The formalin test (Wheeler-Aceto H, Porreca F, Cowan A. The rat paw formalin test: comparison of noxious agents. Pain 1990; 40:229-38) involves injection of 0.5% formalin into the mouse hind paw. The injection elicits a distinct biphasic behavioral profile in response to the formalin injection characterized by licking of the affected paw, and the number of licks is measured as a proxy for perceived pain. The first (acute) phase corresponds to the direct stimulation of peripheral fibers, while the second (inflammatory) phase is caused by the release of inflammatory mediators from the damaged tissue and nerve endings. Thus, this model is ideally suited to test the efficacy of Wogonin against the acute and chronic hyper-responsive neuronal discharges following activation of peripheral nerve fibers.
The results of the formalin test are given both as raw data (“Response”) and in an aggregate, analyzed form (“Analysis”). In the Response section, each Trial involves sixteen animals, eight controls given an i.p. injection of vehicle and eight given Wogonin at a specified dose. The data recorded for each animal is the amount of time spent licking the affected hind paw in a two-minute period. These two-minute periods occur at five-minute intervals and continue for […]. […] From this plot, the area under the cure (AUC) is determined for each animal during both the acute and inflammatory stages. The AUC for each phase is shown in the analysis section of the data sheet for both control and Wogonin-treated animals. The AUC for each Wogonin-treated animal is compared to the average result from the control group, yielding an average percent of control (reported with the SEM and p value). Significant reductions in this number indicate a reduction in licking, and, presumably, a reduction of perceived pain.
Male Swiss Webster NIH mice (20-30 g; Harlan, San Diego, Calif.) were used in the experiments described herein. Food was withdrawn on the day of experiment. Mice were placed in Plexiglass jars for at least 1 hour to accommodate to the environment. Following the accommodation period, mice were weighed and given Wogonin administered intraperitoneal (i.p.) or the appropriate volume of vehicle (10% Tween-80). Fifteen minutes after the i.p. dosing, mice were injected with formalin (20 μL of 5% formaldehyde solution in saline) into the dorsal surface of the right hind paw. Mice were transferred to the Plexiglass jars and monitored for the amount of time spent licking or biting the injected paw. Periods of licking and biting were recorded in 5 minute intervals for 40 minutes after the formalin injection. All experiments were done in a blinded manner. The early phase (acute) of the formalin response is measured as licking/biting between 0-10 minutes, and the late phase (inflammatory) is measured from 10-40 minutes. Differences between vehicle and Wogonin-treated groups are analyzed by one-way analysis of variance (ANOVA). A P value <0.05 is considered significant. Activity in blocking the acute and second phase of formalin-induced paw-licking activity is indicative that compounds are efficacious for acute and chronic pain. A significant response to both the acute and the inflammatory phases of the test was observed.

## COc1c(O)cc(O)c2c(=O)cc(-c3ccccc3)oc12 [Wogonin, 5,7-dihydroxy-8-methoxyflavone]
[1]; 10^−4 M Wogonin
  neuroprotective effect (% protection): > 75%
[1]; 10^−9 M Wogonin
  neuroprotective effect (% protection): 0%
[1]; Cortical neurone, mouse cortical neurons, LDH assay, read-out: IC50, inhibition of neuronal death on exposure to N-methyl-D-aspartate
  IC50: 2000 nM
[2]; 0 mm
  Duration of Licking: 0.00 sec (3×) and 35.48 sec and 21.75 sec and 53.96 sec and 44.26 sec and 32.29 sec
[2]; 5 min
  Duration of Licking: 0.00 s
[2]; 10 min
  Duration of Licking: 0.00 s
[2]; 20 min
  Duration of Licking: 0.00 sec (7×) and 16.00 sec
[2]; 25 min
  Duration of Licking: 0.00 sec (5×) and 3.89 sec and 20.61 sec and 10.96 sec
[2]; 30 min
  Duration of Licking: 0.00 sec (4×) and 29.12 sec and 55.07 sec and 2.95 sec and 37.69 sec
[2]; 35 min
  Duration of Licking: 0.00 sec (6×) and 21.24 sec and 12.73 sec
[2]; 40 min
  Duration of Licking: 0.00 sec (6×) and 20.18 sec and 27.36 sec
[2]; Acute phase
  Area Under the Curve, Drug Treated: 58.7
[2]; Inflammatory phase
  Area Under the Curve, Drug Treated: 146.3
[2]; mouse models
  overt toxicity: Overt toxicity was not seen
